Reference: patent US20040127416A1, “Therapeutic bioconjugates” (priority 2002, published 2004)
Each block holds one molecule with its values, some of them ahead of it. Ends that are not written are not given here. glycidyl methacrylate‑derivatized dextran = not defined here

Columns and labels:
[1] = system: TNF-α stimulated, ICAM-expressing BECs; assay: inflammatory cell adhesion assay: U937 monocyte adhesion to TNF-α stimulated bovine endothelial cell monolayers; type: cell-based; conditions: U937 cells on TNF-α stimulated
Description: This experiment illustrates the activity of the bioconjugate, whose synthesis was described above, in the inflammatory cell adhesion assay. Bovine endothelial cell (BEC) monolayers were established in 24-well culture dishes. At 24 h prior to the assay, normal medium (Minimal Eagle's Medium with 10% fetal bovine serum, 1% ABAM and 1% L-glutamine) (Gibco, CA, USA) was replaced with medium containing tumor necrosis factor α (TNF-α, 10 ng/ml). Following the 24 h incubation period, each sample well received a medium change.
Treated sample groups received medium containing 6% dextran bioconjugate or 6% bioconjugate. […] Two other control treatments were given: a medium change with no dextran or peptide was given to a sample group pretreated with TNF-α, and a positive control that was not pretreated with TNF-α. After a 30-minute incubation period, the medium in all wells was replaced with medium containing the human monocyte cell line U937 (1×10^5/ml) (ATCC, Manassas, Va.). All samples were incubated for another 30 minutes, then washed three times with PBS to remove non-adherent cells. The average number of adherent cells per 100× microscopic field was determined for each sample group.

[2] = system: inflammatory HUVECs; assay: in vitro ICAM-1-mediated leukocyte cell adhesion assay: U937 adhesion to TNF-α treated HUVEC monolayers; type: cell-based, human; conditions: TNF-α (10 ng/ml, 24 h) treated HUVECs; medium containing 6% dextran bioconjugate, 30 min; n=4 wells
Description: To assess the effect of these peptide-dextran bioconjugates on inflammatory cell adhesion, the following in vitro ICAM-1-mediated leukocyte cell adhesion assay was performed. HUVEC monolayers were established in 24-well culture dishes. At 24 h prior to the assay, normal culture media were replaced with medium containing TNF-α (10 ng/ml). Following the 24 h incubation period, each sample well received a medium change. Treated sample groups received medium containing 6% dextran bioconjugate (dextran conjugated to the A domain peptide CNAFKILVVITDGEK). Untreated control samples received normal medium. Negative sham control samples received medium containing dextran conjugate with a scrambled A domain sequence (KCENGADFTKIIVLV). All samples were then incubated for 30 min prior to the adhesion assay. Medium was removed from all wells following the 30 min incubation and replaced with medium containing U937 monocytic cells (1×10^5/ml). All samples were then incubated for another 30 min. After this incubation period, samples were washed three times with PBS to remove non-adherent monocytes. The samples were then fixed, and an average number of adherent monocytes per 100× microscopic field was determined for each sample group. Statistical comparisons between sample groups (n=4 replicate wells per group) were performed using a student's t-test.

[3] = biological target: T1, ICAM-1 expressed on TNF-alpha stimulated bovine endothelial cells (BEC) (bovine, UniProt Q95132 28-535); assay: cell-based or functional assay
T1 sequence (looked up): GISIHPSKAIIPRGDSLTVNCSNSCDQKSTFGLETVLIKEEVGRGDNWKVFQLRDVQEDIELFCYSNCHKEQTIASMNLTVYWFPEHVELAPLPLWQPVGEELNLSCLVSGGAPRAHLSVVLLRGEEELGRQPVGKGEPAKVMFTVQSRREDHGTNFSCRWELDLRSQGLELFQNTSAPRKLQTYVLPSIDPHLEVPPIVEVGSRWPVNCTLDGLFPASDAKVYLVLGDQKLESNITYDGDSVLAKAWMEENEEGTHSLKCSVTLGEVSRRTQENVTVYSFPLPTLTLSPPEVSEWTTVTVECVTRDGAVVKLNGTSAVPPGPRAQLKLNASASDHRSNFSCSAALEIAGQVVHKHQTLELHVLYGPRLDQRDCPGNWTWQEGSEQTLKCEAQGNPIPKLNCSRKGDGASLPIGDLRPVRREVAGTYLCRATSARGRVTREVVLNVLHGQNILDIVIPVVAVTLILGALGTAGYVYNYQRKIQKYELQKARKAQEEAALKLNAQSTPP

Molecule: CTVDLKFGIKNIEAV [inactive peptide, reference compound]
effect on monocyte adhesion (in words) [1]: comparable to no treatment after the TNF-α activation

Molecule: active peptide conjugate: methacroylated dextran (about 70 kD) coupled to synthetic peptide CNAFKILVVITDGEK, based on the ICAM-1-binding portion of integrin αmβ2 (CD11b/CD18) (also: coupled to methacroylated dextran (about 70 kD), site not given here)
effect on monocyte adhesion (in words) ([1]; listed as active dextran bioconjugate): prevented monocyte adhesion to the extent observed in non-stimulated BECS
effect on monocyte adhesion (in words) ([1]; listed as bioconjugate): reducing monocyte adhesion to levels observed in control, non-stimulated cells
U937 cell adhesion reduced by [2]: 87.7%

Molecule: inactive peptide conjugate: dextran bioconjugate containing an inactive scrambled sequence of the A-domain peptide, CTVDLKFGIKNIEAV; sham control (also: conjugated to dextran, attachment site not given here) [reference compound]
effect on monocyte adhesion (in words) [1]: inhibited cell adhesion poorly

B1: dextran bioconjugate containing the inactive scrambled A-domain peptide CTVDLKFGIKNIEAV (peptide)
peptide: CTVDLKFGIKNIEAV
modifications: not fully specified (residue 1); also: Cys sulfhydryl coupled to glycidyl methacrylate-derivatized dextran (about 70 kD)
relative monocyte adherence (U937 cells on TNF-alpha activated BEC; negative control = 100%) [3]: 55.6%

Continued, values first:

relative monocyte adherence (U937 cells on TNF-alpha activated BEC; negative control = 100%) [3]: 56.3%
Molecule: CNAFKILVVITDGEK [synthetic peptide CNAFKILVVITDGEK, unconjugated]

relative monocyte adherence (U937 cells on TNF-alpha activated BEC; negative control = 100%) [3]: 3.34%
B2: dextran/peptide bioconjugate: synthetic A domain peptide CNAFKILVVITDGEK coupled to methacroylated (activated) dextran (peptide)
peptide: C(glycidyl methacrylate‑derivatized dextran)NAFKILVVITDGEK
modifications: reading uncertain; also: polyvalent conjugate on dextran, peptides per dextran not given here

relative monocyte adherence (U937 cells on TNF-alpha activated BEC; negative control = 100%) [3]: 95.7%
Molecule: CTVDLKFGIKNIEAV [inactive scrambled peptide CTVDLKFGIKNIEAV, unconjugated]
